# Data from patent publication US7714146B2, “Azulene-oxindole compounds as multiple-kinase inhibitors and useful as anticancer agents” (Industrial Technology Research Institute, priority 2006, dated 2010).
# Experiments:
# Assay type in all cases: biochemical
# [1] = target: T1, human PDGFRβ (Gln557-Leu1106) (Homo sapiens, UniProt P09619); test: PDGFR-beta kinase assay (HTScan kit, DELFIA); conditions: compound at 10 μM
# T1 construct: human PDGFRβ (Gln557-Leu1106); GST (N); purchased Cell Signaling Technology; host or cells: baculovirus expression system
# T1 sequence (P09619 557-1106): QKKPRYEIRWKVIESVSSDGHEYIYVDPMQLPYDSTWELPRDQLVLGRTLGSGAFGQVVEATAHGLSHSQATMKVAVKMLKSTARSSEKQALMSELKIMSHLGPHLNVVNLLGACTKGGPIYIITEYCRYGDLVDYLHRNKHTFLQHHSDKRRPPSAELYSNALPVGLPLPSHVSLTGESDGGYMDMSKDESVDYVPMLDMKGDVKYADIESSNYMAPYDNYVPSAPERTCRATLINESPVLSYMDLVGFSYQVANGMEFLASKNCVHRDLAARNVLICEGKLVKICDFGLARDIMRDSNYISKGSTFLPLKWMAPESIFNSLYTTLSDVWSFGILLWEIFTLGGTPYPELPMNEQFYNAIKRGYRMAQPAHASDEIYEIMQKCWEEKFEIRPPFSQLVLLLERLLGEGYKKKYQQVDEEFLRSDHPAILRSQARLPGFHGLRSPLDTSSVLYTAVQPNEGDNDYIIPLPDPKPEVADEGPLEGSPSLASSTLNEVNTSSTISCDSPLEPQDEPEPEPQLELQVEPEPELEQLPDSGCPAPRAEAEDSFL
# Experimental: (§1) Compounds 1-100 were treated for their efficacy in inhibiting activities of FLT-3, c-KIT, KDR/Flk-1, PDGFR-beta, EGFR, and PKC kinases by biochemical DELFIA (Dissociation Enhanced Lanthanide FIA) assays according to the procedure described below. The assays were conducted by, Division of Cell Engineering, Biomedical Engineering Research Laboratories, Industrial Technology Research Institute, Bldg. 53, 195, sec. 4, Chung Hsing Rd. Chutung, Hsinchu, Taiwan 310, R.O.C.
# The PDGFR-beta assay was conducted following the protocol described in Protocol for HTScan® PDGFR-beta Kinase Assay Kit (Cell Signaling Technology®). The assay was conducted under the following conditions: PDGFR-beta source: The GST-Kinase fusion protein was produced using a baculovirus expression system with a construct expressing human PDGFRβ (Gln557-Leu1106) (GenBank Accession No. NM_002609) with an amino-terminal GST tag, substrate: This biotinylated peptide contains the residues surrounding Tyr-589 of FLT-3, vehicle: 1% DMSO, pre-incubation time/temperature: 5 minutes at room temperature, incubation time/temperature: 30 minutes at room temperature, incubation buffer: 60 mM HEPES pH 7.5, 5 mM MgCl2, 5 mM MnCl2, 3 μM Na3VO4, 1.25 mM DTT, 20 μM ATP, and quantitative method: DELFIA® Assay.
# [2] = target: T2, human c-KIT (Thr544-Val976) (Homo sapiens, UniProt P10721); test: c-KIT kinase assay (HTScan kit, DELFIA); conditions: for inhibition at 0.1 µM: read-out: c-KIT 0.1 μM, % of inhibition relative to control; for inhibition at 1 µM: read-out: c-KIT 1 μM, % of inhibition relative to control
# T2 construct: human c-KIT (Thr544-Val976); GST (N); purchased Cell Signaling Technology; host or cells: baculovirus expression system
# T2 sequence (P10721 544-976): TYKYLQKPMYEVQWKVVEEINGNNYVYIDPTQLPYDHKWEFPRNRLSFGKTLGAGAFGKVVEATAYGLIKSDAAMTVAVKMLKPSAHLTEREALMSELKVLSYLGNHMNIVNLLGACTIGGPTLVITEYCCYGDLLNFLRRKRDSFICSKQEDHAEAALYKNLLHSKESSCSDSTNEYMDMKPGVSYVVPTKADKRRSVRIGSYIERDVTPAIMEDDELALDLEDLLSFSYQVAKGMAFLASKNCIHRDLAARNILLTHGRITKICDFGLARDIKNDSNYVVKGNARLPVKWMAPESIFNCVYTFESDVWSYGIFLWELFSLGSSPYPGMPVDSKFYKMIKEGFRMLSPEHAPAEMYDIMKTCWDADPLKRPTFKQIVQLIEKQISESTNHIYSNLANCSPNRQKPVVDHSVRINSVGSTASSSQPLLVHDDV
# Method in brief: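 GST-tagged human c-KIT (Thr544-Val976) from baculovirus, with 1.5 μM biotinylated KDR Tyr-996 peptide and 20 μM ATP in HEPES pH 7.5 buffer containing Mg2+/Mn2+ and 1% DMSO. Enzyme and compound pre-incubated 5 min, reaction run 30 min at room temperature; phosphorylation detected by DELFIA.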
# [3] = target: T3, human VEGFR-2 (Val789-Val1356) (Homo sapiens, UniProt P35968); test: KDR kinase assay (HTScan VEGFR-2 kit, DELFIA); conditions: for inhibition at 1 µM: read-out: KDR 1 μM, % of inhibition relative to control; for inhibition at 0.1 µM: read-out: KDR 0.1 μM, % of inhibition relative to control
# T3 construct: human VEGFR-2 (Val789-Val1356); GST (N); purchased Cell Signaling Technology; host or cells: baculovirus expression system
# T3 sequence (P35968 789-1356): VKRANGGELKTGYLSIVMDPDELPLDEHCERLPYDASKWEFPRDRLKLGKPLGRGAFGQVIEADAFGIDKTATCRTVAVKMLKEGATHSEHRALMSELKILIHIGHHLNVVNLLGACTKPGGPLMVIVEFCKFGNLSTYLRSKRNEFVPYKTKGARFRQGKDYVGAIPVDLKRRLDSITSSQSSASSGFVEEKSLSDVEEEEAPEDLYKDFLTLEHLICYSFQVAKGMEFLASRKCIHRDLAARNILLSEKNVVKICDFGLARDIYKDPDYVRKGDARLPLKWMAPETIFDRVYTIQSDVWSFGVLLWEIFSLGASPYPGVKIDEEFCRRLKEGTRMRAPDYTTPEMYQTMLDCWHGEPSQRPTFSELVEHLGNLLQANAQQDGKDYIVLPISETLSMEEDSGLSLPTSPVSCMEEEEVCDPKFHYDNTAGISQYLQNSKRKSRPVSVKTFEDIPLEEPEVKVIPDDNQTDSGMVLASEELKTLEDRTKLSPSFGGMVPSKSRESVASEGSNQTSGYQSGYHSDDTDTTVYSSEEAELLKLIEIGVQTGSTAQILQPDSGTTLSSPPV
# Method in brief: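 GST-tagged human VEGFR-2 (Val789-Val1356) from baculovirus, with 1.5 μM biotinylated gastrin precursor peptide and 20 μM ATP in HEPES pH 7.5, Mg/Mn, vanadate, DTT, 1% DMSO. Pre-incubation 5 min, reaction 30 min at room temperature; phosphorylation read by DELFIA.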
# [4] = target: T4, human FLT-3 (Arg571-Ser993) (Homo sapiens, UniProt P36888); test: FLT-3 kinase assay (HTScan kit, DELFIA); conditions: for inhibition at 1 µM: read-out: FLT-3 1 μM, % of inhibition relative to control; for inhibition at 0.1 µM: read-out: FLT-3 0.1 μM, % of inhibition relative to control
# T4 construct: human FLT-3 (Arg571-Ser993); GST (N); purchased Cell Signaling Technology; host or cells: baculovirus expression system
# T4 sequence (P36888 571-993): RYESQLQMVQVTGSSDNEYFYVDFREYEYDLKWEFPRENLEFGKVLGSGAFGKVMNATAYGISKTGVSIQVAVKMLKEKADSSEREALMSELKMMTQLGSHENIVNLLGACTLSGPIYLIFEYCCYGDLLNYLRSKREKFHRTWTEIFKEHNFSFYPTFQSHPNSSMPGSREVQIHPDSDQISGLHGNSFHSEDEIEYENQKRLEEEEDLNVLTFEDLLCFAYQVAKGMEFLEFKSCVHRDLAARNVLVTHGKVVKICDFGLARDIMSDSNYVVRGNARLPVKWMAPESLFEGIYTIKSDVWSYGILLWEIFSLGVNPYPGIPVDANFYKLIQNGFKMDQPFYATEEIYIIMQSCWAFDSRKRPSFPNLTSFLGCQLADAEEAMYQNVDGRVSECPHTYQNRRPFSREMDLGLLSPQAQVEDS
# Method in brief: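 GST-tagged human FLT-3 (Arg571-Ser993, baculovirus-expressed) phosphorylated 1.5 μM biotinylated gastrin precursor peptide with 20 μM ATP in HEPES pH 7.5, Mg/Mn buffer and 1% DMSO. After 5 min preincubation, the reaction ran 30 min at room temperature. Phosphorylation was read by DELFIA.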
# [5] = target: T5, human EGFR (His672-Ala1210) (Homo sapiens, UniProt P00533); test: EGFR kinase assay (HTScan kit, DELFIA)
# T5 construct: human EGFR (His672-Ala1210); GST (N); purchased Cell Signaling Technology; host or cells: baculovirus expression system
# T5 sequence (P00533 672-1210): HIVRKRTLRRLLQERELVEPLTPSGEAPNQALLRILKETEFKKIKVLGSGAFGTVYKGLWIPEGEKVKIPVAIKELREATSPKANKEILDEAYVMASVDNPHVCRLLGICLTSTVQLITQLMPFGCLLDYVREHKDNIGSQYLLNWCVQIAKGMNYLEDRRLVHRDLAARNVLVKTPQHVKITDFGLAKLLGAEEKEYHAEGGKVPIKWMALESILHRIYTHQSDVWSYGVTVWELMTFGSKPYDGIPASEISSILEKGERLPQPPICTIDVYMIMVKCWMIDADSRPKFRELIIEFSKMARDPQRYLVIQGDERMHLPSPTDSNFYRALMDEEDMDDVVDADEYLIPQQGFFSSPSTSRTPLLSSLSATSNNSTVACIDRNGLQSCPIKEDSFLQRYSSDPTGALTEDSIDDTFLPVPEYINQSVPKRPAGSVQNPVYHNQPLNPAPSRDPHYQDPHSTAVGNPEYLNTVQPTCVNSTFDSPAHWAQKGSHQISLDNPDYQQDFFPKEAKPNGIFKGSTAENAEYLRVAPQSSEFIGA
# Experimental: as §1
# The EGFR assay was conducted following the protocol described in Protocol for HTScan® EGFR Kinase Assay Kit (Cell Signaling Technology®). The assay was conducted under the following conditions: EGFR source: The GST-kinase fusion protein was produced using a baculovirus expression system with a construct expressing human EGFR (His672-Ala1210) (GenBank Accession No. NM_005228) with an amino-terminal GST tag, substrate: 1.5 μM This biotinylated peptide contains the residues surrounding Tyr-66 of PTP1B, vehicle: 1% DMSO, pre-incubation time/temperature: 5 minutes at room temperature, incubation time/temperature: 30 minutes at room temperature, incubation buffer: 60 mM HEPES pH 7.5, 5 mM MgCl2, 5 mM MnCl2, 3 μM Na3VO4, 1.25 mM DTT, 20 μM ATP, and quantitative method: DELFIA® Assay.
Structure (SMILES),"PDGFR-β 10 μM, % of inhibition relative to control [1]",inhibition at 0.1 µM ([2]; compound at 0.1 μM),inhibition at 1 µM ([2]; compound at 1 μM),inhibition at 1 µM ([3]; compound at 1 μM),inhibition at 1 µM ([4]; compound at 1 μM),inhibition at 0.1 µM ([3]; compound at 0.1 μM),inhibition at 0.1 µM ([4]; compound at 0.1 μM),"EGFR 0.1 μM, % of inhibition relative to control ([5]; compound at 0.1 μM)","EGFR 1 μM, % of inhibition relative to control ([5]; compound at 1 μM)","c-KIT 0.1 μM, % of inhibition relative to control ([2]; compound at 0.1 μM)","c-KIT 1 μM, % of inhibition relative to control ([2]; compound at 1 μM)","KDR 0.1 μM, % of inhibition relative to control ([3]; compound at 0.1 μM)","KDR 1 μM, % of inhibition relative to control ([3]; compound at 1 μM)","FLT-3 0.1 μM, % of inhibition relative to control ([4]; compound at 0.1 μM)","FLT-3 1 μM, % of inhibition relative to control ([4]; compound at 1 μM)","inhibition at 1 µM ([5]; compound at 1 μM, read-out: EGFR 1 μM, % of inhibition relative to control)"
"O=C1C(=Cc2ccc3cccccc2-3)c2ccccc2N1Cc1ccccc1 [Compound 2, 3-Azulen-1-ylmethylene-1-benzyl-1,3-dihydro-indol-2-one]",3.6%,24.7%,24.7%,10.3%,–,–,–,–,–,–,–,–,–,–,–,–
"O=C1/C(=C/c2ccc3cccccc2-3)c2ccccc2N1C(c1ccccc1)c1ccccc1 [Compound 3, 3-Azulen-1-ylmethylene-1-benzhydryl-1,3-dihydro-indol-2-one]",14.4%,–,–,–,5.1%,–,–,–,–,–,–,–,–,–,–,–
"O=C1Nc2ccc(Br)cc2/C1=C/c1ccc2cccccc1-2 [Compound 6, 3-Azulen-1-ylmethylene-5-bromo-1,3-dihydro-indol-2-one]",35.5%,36.6%,36.6%,29.7%,–,19.6%,–,–,–,–,–,–,–,–,–,–
"O=C1Nc2ccc(Br)cc2/C1=C\c1ccc2cccccc1-2 [Compound 7, 3-Azulen-1-ylmethylene-5-bromo-1,3-dihydro-indol-2-one]",4.7%,30.9%,30.9%,28.8%,40.1%,29.5%,17.8%,–,–,–,–,–,–,–,–,–
"O=C1Nc2ccc([N+](=O)[O-])cc2/C1=C/c1ccc2cccccc1-2 [Compound 8, 3-Azulen-1-ylmethylene-5-nitro-1,3-dihydro-indol-2-one]",16.2%,36.4%,36.4%,55.9%,11.5%,26.4%,–,–,–,–,–,–,–,–,–,–
"Cc1cc(C)c2ccc(/C=C3/C(=O)Nc4ccccc43)c-2c(C)c1 [Compound 9, 3-(4,6,8-Trimethyl-azulen-1-ylmethylene)-1,3-dihydro-indol-2-one]",14.7%,11.5%,11.5%,33.4%,3.8%,12.3%,–,–,–,–,–,–,–,–,–,–
"Cc1cc(C)c2ccc(/C=C3/C(=O)N(Cc4ccccc4)c4ccccc43)c-2c(C)c1 [Compound 10, 1-Benzyl-3-(4,6,8-trimethyl-azulen-1-ylmethylene)-1,3-dihydro-indol-2-one]",18.6%,8.4%,8.4%,38.5%,–,22.1%,–,–,–,–,–,–,–,–,–,–
"Cc1cc(/C=C2/C(=O)Nc3ccccc32)c2c(C)ccc(C(C)C)cc1-2 [Compound 12, 3-(5-Isopropyl-3,8-dimethyl-azulen-1-ylmethylene)-1,3-dihydro-indol-2-one]",7.3%,14.7%,14.7%,34.3%,–,17.3%,–,–,–,–,–,–,–,–,–,–
"COC(=O)c1cc(/C=C2\C(=O)Nc3ccccc32)c2cccccc1-2 [Compound 16, 3-(2-Oxo-1,2-dihydro-indol-3-ylidenemethyl)-azulene-1-carboxylic acid methyl ester]",3.6%,2.8%,2.8%,20.1%,–,15.4%,7.7%,–,–,–,–,–,–,–,–,–

# More lines, now with the values ahead:
"PDGFR-β 10 μM, % of inhibition relative to control [1]",inhibition at 0.1 µM ([2]; compound at 0.1 μM),inhibition at 1 µM ([2]; compound at 1 μM),inhibition at 1 µM ([3]; compound at 1 μM),inhibition at 1 µM ([4]; compound at 1 μM),inhibition at 0.1 µM ([3]; compound at 0.1 μM),inhibition at 0.1 µM ([4]; compound at 0.1 μM),"EGFR 0.1 μM, % of inhibition relative to control ([5]; compound at 0.1 μM)","EGFR 1 μM, % of inhibition relative to control ([5]; compound at 1 μM)","c-KIT 0.1 μM, % of inhibition relative to control ([2]; compound at 0.1 μM)","c-KIT 1 μM, % of inhibition relative to control ([2]; compound at 1 μM)","KDR 0.1 μM, % of inhibition relative to control ([3]; compound at 0.1 μM)","KDR 1 μM, % of inhibition relative to control ([3]; compound at 1 μM)","FLT-3 0.1 μM, % of inhibition relative to control ([4]; compound at 0.1 μM)","FLT-3 1 μM, % of inhibition relative to control ([4]; compound at 1 μM)","inhibition at 1 µM ([5]; compound at 1 μM, read-out: EGFR 1 μM, % of inhibition relative to control)",Structure (SMILES)
5.3%,16.6%,16.6%,40.6%,30.3%,15.6%,28.8%,–,–,–,–,–,–,–,–,–,"O=C1Nc2ccc(Cl)cc2/C1=C\c1ccc2cccccc1-2 [Compound 22, 3-Azulen-1-ylmethylene-5-chloro-1,3-dihydro-indol-2-one]"
7.9%,60.4%,60.4%,59.1%,34.7%,33.9%,5%,–,–,–,–,–,–,–,–,–,"O=C1Nc2ccc(F)cc2/C1=C/c1ccc2cccccc1-2 [Compound 26, 3-Azulen-1-ylmethylene-5-fluoro-1,3-dihydro-indol-2-one]"
5.3%,25.7%,25.7%,39.5%,30.9%,25.9%,8.6%,–,–,–,–,–,–,–,–,–,"O=C1Nc2ccccc2/C1=C\c1c2cccccc-2[nH]c1=O [Compound 27, 3-(2-Oxo-1,2-dihydro-indol-3-ylidenemethyl)-1H-cyclohepta[b]pyrrol-2-one]"
–,–,–,–,–,–,–,7.9%,10.4%,19.5%,19.5%,22.3%,25.8%,4.0%,29.6%,–,"CN(C)S(=O)(=O)c1ccc2c(c1)/C(=C/c1ccc3cccccc1-3)C(=O)N2 [Compound 50, (3Z)-3-(((3aZ,5Z,7Z)-azulen-1-yl)methylene)-5-(N,N-dimethylsulfonyl)indolin-2-one]"
–,73.9%,73.9%,26.4%,82.6%,–,38.4%,–,–,–,–,–,–,–,–,11.5%,"O=C1Nc2ccc(F)cc2/C1=C\c1cc(Br)c2cccccc1-2 [Compound 51, 3-(3-Bromo-azulen-1-ylmethylene)-5-fluoro-1,3-dihydro-indol-2-one]"
